Data: patent US8044089B2, “3-3-di-substituted-oxindoles as inhibitors of translation initiation” (President and Fellows of Harvard College, priority 2004, dated 2011)
pIC50: −log10 of the molar value.

Tested on: A549 lung cancer cells
Test: SRB growth inhibition of A549 lung cancer cells
Format: cell-based, human
Details: A549 lung cancer cells; unit inferred; read-out: SRB (IC50 for growth inhibition of A549 lung cancer cells)
Excerpt: As a non-limiting example, compounds 1272 and 1273 (set forth in Table 1) were synthesized starting from 3-bromoaniline, which upon condensation with hydroxylamine and chloral hydrate followed by concentrated sulfuric acid yielded an inseparable regioisomeric mixture of 4- and 6-bromo isatins. The addition of the two phenyl groups to the three position of the oxindole allowed easy chromatographic separation of the 4- and 6-bromo-3,3-diphenyloxindoles 1272 and 1273. Table 1 sets forth biological data for diaryloxindole compounds including, but not limited to 1272 and 1273. For Tables 1-14, Ca^2+ refers to Ca^2+ release from intracellular stores where a “+” denotes release and a “+/−” denotes inconclusive; eIF2α-P refers to phosphorylation of eIF2α measured by Western blot; SRB refers to the inhibitory concentration to reduce cell growth by 50% (IC50) for growth inhibition of A549 lung cancer cells; and n.d. is not determined. […]

Structure (SMILES)	pIC50
CCCCOc1ccc(S(=O)(=O)N2C(=O)C(c3ccccc3)(c3ccccc3)c3ccccc32)cc1 [Compound 1306]	< 4.70
CC(C)(C)c1ccc(S(=O)(=O)N2C(=O)C(c3ccccc3)(c3ccccc3)c3ccccc32)cc1 [Compound 1311]	4.96
O=C1Nc2ccccc2C1(c1cccc(F)c1)n1ccnc1 (stereo not shown) [Compound 1316]	< 4.70
O=C1N(CO)c2ccccc2C1(c1ccccc1)c1ccccc1 [Compound 1304]	5.00
CC(=O)Nc1cc(O)c(C)cc1C1(c2ccccc2)C(=O)Nc2ccccc21 (stereo not shown) [Compound 1639]	< 4.70
Cc1cccc(C2(n3ccnc3)C(=O)Nc3ccccc32)c1 (stereo not shown) [Compound 1317]	< 4.70
Cc1cc(C2(c3ccccc3)C(=O)Nc3c(C(=O)O)cccc32)c(NS(=O)(=O)c2ccc(C(C)(C)C)cc2)cc1O (stereo not shown) [Compound 1431]	< 4.70
O=C1N(S(=O)(=O)c2ccc(Oc3ccccc3)cc2)c2ccccc2C1(c1ccccc1)c1ccccc1 [Compound 1307]	< 4.70
O=C1Nc2ccccc2C1(c1ccccc1)c1cc(C(F)(F)F)ccc1O (stereo not shown) [Compound 1243]	< 4.70
CC(C)(C)c1ccc(O)c(C2(c3ccccc3)C(=O)N(CC(=O)O)c3ccccc32)c1 (stereo not shown) [Compound 1339]	< 4.70
CC(=O)Nc1ccc(S(=O)(=O)N2C(=O)C(c3ccccc3)(c3ccccc3)c3ccccc32)cc1 [Compound 1308]	4.96
O=C1N(c2ccccc2)c2ccccc2C1(c1ccccc1)c1ccccc1 [Compound 1300]	5.10
O=C1Nc2ccccc2C1(c1ccc(O)cc1)c1ccc(O)cc1 [Compound 1259]	< 4.70
O=C1Nc2ccccc2C1(c1ccccc1)n1ccnc1 (stereo not shown) [Compound 1315]	< 4.70
COc1ccc(C2(c3ccccc3)C(=O)Nc3ccccc32)c(CC(=O)O)c1 (stereo not shown) [Compound 1327]	< 4.70
CC(C)(C)c1ccc(O)c(C2(c3ccccc3)C(=O)N(c3ccccc3)c3ccccc32)c1 (stereo not shown) [Compound 1255]	5.40
O=C1N(Cc2ccc(Cl)cc2)c2ccccc2C1(c1ccccc1)c1ccccc1 [Compound 1302]	4.85

Same assay, conditions: Homo sapiens; A549 lung cancer cells; unit inferred; read-out: SRB (IC50 for growth inhibition of A549 lung cancer cells)

Structure (SMILES)	pIC50
CC(C)(C)c1ccc2c(c1)C1(c3ccccc3)C(=O)N(C/C=C\CO2)c2ccccc21 (stereo not shown) [Compound 1291]	< 4.70
CC(C)(C)c1ccc(OCC#N)c(C2(c3ccccc3)C(=O)N(CC#N)c3ccccc32)c1 (stereo not shown) [Compound 1320]	5.40
